According to patent US11192863B2, “Antiviral compounds and methods” (Biotron Limited, priority 2003, dated 2021):
“Also recorded” adds a separate entry of the source. Like-named read-outs stand apart in the source and are kept apart here.

Columns and labels:
[1] = target: Vpu protein (Human immunodeficiency virus type 1 group M subtype B, UniProt P05919); settings: for Vpu Inhibition (score/# of times tested): halo of growth score between zero and six, XL1-blue E. coli with pPL-Vpu, no adenine, 37° C.
[2] = target: 229E-CoV E-protein (Human coronavirus 229E, UniProt P19741); assay: Bacterial bio-assay for 229E-CoV E-protein; settings: halo of growth score; E. coli expressing E protein at 37° C.
[3] = tested on: MHV (strain MHV-A59); settings: L929 cells
[4] = tested on: MHV (strain MHV-A59); assay: microbe, parasite or virus in culture; settings: Murine coronavirus, L929, read-out: Percent reduction in Plaque number/# experiments
[5] = target: SARS-CoV E protein (Severe acute respiratory syndrome coronavirus, UniProt P59637); type: cell-based
[6] = tested on: human coronavirus OC43; assay: microbe, parasite or virus in culture; type: cell-based; settings: Betacoronavirus 1, OC43, MRC5, 120 h, MRC-5 cells, 5 days post infection
[7] = tested on: EAV (strain Bucyrus); assay: EAV plaque reduction assay in BHK-21 cells; type: cell-based; settings: Equine arteritis virus; EAV plaques in BHK-21 cells
Protocol: To determine the antiviral activity of compounds against EAV replication (strain Bucyrus; ATCC VR-796), an assay measuring reduction in the number of plaques formed in monolayers of EAV infected BHK-21 cells (ATCC CCL-10) was developed: […] Plates were subsequently incubated at 37° C. […] Plaques were counted in all wells and the percentage reduction in plaque number compared to solvent control was calculated. Measurements were performed in duplicate to quadruplicate wells.

[8] = tested on: HIV; type: cell-based; settings: for At least 1x log reduction seen in p24 assay?: Table 19b, yes/no
[9] = tested on: porcine respiratory coronavirus (PRCV) strain AR310; assay: PRCV plaque assay in ST cells; type: cell-based; settings: Alphacoronavirus 1; PRCV plaques in ST cells
[10] = tested on: bovine coronavirus (BCV); assay: BCV plaque assay in MDBK cells; type: cell-based; settings: Betacoronavirus 1; BCV plaques in MDBK cells
[11] = target: SARS E protein ion channel (Severe acute respiratory syndrome coronavirus, UniProt P59637); type: biochemical, SARS-CoV
[12] = tested on: Dengue 1 strain Hawaii; assay: Dengue cytoproliferation assay in LLC-MK2 cells (Alamar Blue); type: cell-based, Dengue virus; settings: 7 days
[13] = tested on: SARS-CoV (Hong Kong strain); type: cell-based, SARS coronavirus; settings: for decrease in virus titre: 10 uM; for Titre (% control): 48 hours; for Average TCID50 (×10^6): 48 hours post infection
[14] = target: 229E E protein ion channel (Human coronavirus 229E, UniProt P19741); assay: 229E E protein ion channel in planar lipid bilayers; type: biochemical; settings: 100 μM added to the cis chamber; FIG. 10
Protocol: The 229E E synthetic peptide was dissolved in 2,2,2-trifluorethanol (TFE) at 0.05 mg/ml to 1 mg/ml. […] Ionic currents, indicating channel activity in the bilayer, were typically detected within 15-30 min. After channels were detected the holding potential across the bilayer was varied between −100 mV and +100 mV to characterise the size and polarity of current flow and enable the reversal potential to be determined.
To test compounds for their ability to block or otherwise inhibit the ion channel formed by 229E E protein, small aliquots of solutions containing the compounds were added to the aqueous solutions bathing planar lipids in which the peptide channel activity had been reconstituted and the effect of the compound addition on the ionic currents was recorded and measured.
Compound stock solutions were typically prepared at 500 mM in DMSO. This solution was further diluted to 50 mM, or lower concentration in 50% DMSO/50% methanol and 2 μl of the appropriately diluted compound was added to the cis and/or trans chambers to yield the desired final concentration.

[15] = Table 19a, rank among 12 compounds, 1 = highest score

Row | Structure (SMILES) | Vpu Inhibition (score/# of times tested) [1] | 229E E protein Inhibition (score) [2] [score] | Percent reduction in Plaque number/# experiments ([3]; 1 uM) | Percent reduction in Plaque number/# experiments ([3]; 10 uM) | SARS E protein Inhibition (score/# of times tested) [5] | inhibition at 2.5 µM [6] [%] | IC50 [7] [µM] | inhibition at 1 µM [4] [%] | Percent reduction in Plaque number/# experiments ([3]; 20 uM) | Bacterial assay rank order [1, 15] | Bacterial assay rank order ([1]; Table 19b) | Vpu Bacterial score ([1]; Table 19b) | At least 1x log reduction seen in p24 assay? [8] | EC50 [9] [µM] | EC50 [10] [µM] | other results
1 | N=C(N)NC(=O)Cc1cccc2ccccc12 [2-(1-napthyl)acetoylguanidine] | 1.56/2 score | 0.8 | 11/1% | 02/1% | 1.50/1 score |  |  |  |  |  |  |  |  |  |  | inhibition at 20 µM [4]: -19%
2 | CC(C)(C)c1ccccc1/C=C/C(=O)NC(=N)N [2-t-butylcinnamoylguanidine] | 2.13/2 score | 3.9 | 37/1% | 98/2% | 1.86/1 score | 4 | 1 |  |  |  |  |  |  |  |  | 
3 | N=C(N)NC(=O)/C=C/c1cccc(C2=CCCCC2)c1 [3-(cyclohex-1-en-1-yl)cinnamoylguanidine] | 2.5/2 score | 2.4 |  | 2/2% | 3.75/1 score |  |  | -19 |  |  |  |  |  |  |  | 
4 | N=C(N)NC(=O)/C=C/c1ccco1 [(2-Furanacryloyl)guanidine] | 0.94/2 score |  |  | 63/2% | 0.82/2 score |  |  | -3 | 67/2% |  |  |  |  |  |  | 
5 | N=C(N)NC(=O)/C=C/c1cccc(Br)c1 [(3-Bromocinnamoyl)guanidine] | 4.3/24 score | 1.7 | 39/3% | 90/3% | 3.15/27 score | 100 | 10 |  | 95/2% | 1 | 1 | 4.3 | yes | 11.2 | 3 | Percent of Positive Control ([8]; Drug Conc. 0.625 μM): 116%; Percent of Positive Control ([8]; Drug Conc. 1.25 μM): 59%; Percent of Positive Control ([8]; Drug Conc. 2.5 μM): 9%; Percent of Positive Control ([8]; Drug Conc. 5 μM): 1%; Percent of Positive Control ([8]; Drug Conc. 10 μM): 3%; % Reduction of average current by 100 μM [11]: 87 ± 11%
6 | N=C(NC(=O)CCc1ccccc1)NC(=O)CCc1ccccc1 [N,N′-Bis(3-phenylpropanoyl)guanidine, N,N-Bis(3-phenylpropanoyl)guanidine] | 0.1/2 score | 0.3 |  | 30/4% |  |  |  | -8 | 41/3% |  |  |  |  |  |  | 
7 | N=C(NC(=O)c1ccc2cc(O)ccc2c1)Nc1ccccc1 [N-(6-Hydroxy-2-napthoyl)-N′-phenylguanidine] | 2.06/2 score |  |  | 39/1% | 1.35/3 score |  |  | -5 | 43/1% |  |  |  |  |  |  | 
8 | NC(N)=NC(=O)/C=C/c1ccccc1 [cinnamoylguanidine] | 2.96/12 score | 1.3 | 52/7% | 88/8% | 0.69/3 score | 57 |  |  | 97/8% | 4 | 4 | 3.0 | yes | 0.08 | 42 | Antiviral Percent of Negative Control ([12]; Drug Conc. 0.625 μM): 76.6%; Antiviral Percent of Negative Control ([12]; Drug Conc. 1.25 μM): 72.6%; Antiviral Percent of Negative Control ([12]; Drug Conc. 2.5 μM): 58.3%; Antiviral Percent of Negative Control ([12]; Drug Conc. 5 μM): 38.6%; Antiviral Percent of Negative Control ([12]; Drug Conc. 10 μM): 17.1%; decrease in virus titre [13]: approximately 80%; Titre (% control) ([13]; Compound Concentration 2 uM): 82 % control; Average TCID50 (×10^6) ([13]; Compound Concentration 2 uM): 4.4 ×10^6; Titre (% control) ([13]; Compound Concentration 10 uM): 24 % control; Average TCID50 (×10^6) ([13]; Compound Concentration 10 uM): 1.3 ×10^6; current flow through the 229E E ion channel (in words) [14]: greatly reduced current flow; E protein ion channel activity (in words) [11]: inhibited; also recorded: significantly reduced; SARS E protein N-terminal peptide channel (in words) [11]: blocked; channels formed by full-length E protein (in words) [11]: blocked; reduction of average current across the bilayer [11]: about 4 fold; average current across the bilayer (in words) ([11]; 100 μM): reduced to baseline
9 | N=C(N)NC(=O)/C=C/c1cccc2ccccc12 [trans-3-(1-napthyl)acryloylguanidine] | 2.9/3 score | 3.7 | 34/3% | 86/3% | 3.38/2 score | 100 | 7.5 |  | 95/2% | 5.5 | 5.5 | 2.9 | yes | 19.1 | 13 | Antiviral Percent of Negative Control ([12]; Drug Conc. 0.625 μM): 77.7%; Antiviral Percent of Negative Control ([12]; Drug Conc. 1.25 μM): 73.7%; Antiviral Percent of Negative Control ([12]; Drug Conc. 2.5 μM): 38.7%; Antiviral Percent of Negative Control ([12]; Drug Conc. 5 μM): 12.4%; Antiviral Percent of Negative Control ([12]; Drug Conc. 10 μM): 6.8%; reduction in virus titre ([13]; 2 μM): approximately 50%; decrease in virus titre [13]: approximately 80%; Titre (% control) ([13]; Compound Concentration 2 uM): 46 % control; Average TCID50 (×10^6) ([13]; Compound Concentration 2 uM): 2.45 ×10^6; Titre (% control) ([13]; Compound Concentration 10 uM): 22 % control; Average TCID50 (×10^6) ([13]; Compound Concentration 10 uM): 1.15 ×10^6; % Reduction of average current by 100 μM [11]: 66 ± 2%
